Laboratory results: patent US20110039763A1, “TARGETED ANTIMICROBIAL MOIETIES” (C3 JIAN, INC., priority 2009, published 2011)
Entries after “also recorded” stand apart in the source; their conditions may differ.

What was measured:
microorganisms [1] = experiment: Peptide activities: targeting/binding, antimicrobial, growth or phenotype altering (Tables 7, 8); assay type: cell-based; conditions: peptides having multiple activities
microorganisms [2] = experiment: Targeting peptide binding to target microorganisms (Tables 3, 10, 12); conditions: microorganism(s) the targeting peptide binds; binding in aqueous buffers varied with peptide solubility, preferably 1x PBS
microorganisms [3] = experiment: Morphology, biofilm and growth disrupting peptides (Table 5); assay type: cell-based; parameters: key: A: Peptide aggregates; B: Less hyphal formation; Clumps; Diffuse clumps and small polyps; F: Diffuse growth; H: Thin; I: Growth inhibition; Microcolony formation; Rippled; Small polyps; Thick; W: Halo formation on top, microlonies on bottom
Description: In certain embodiments peptides that induce alterations in phenotype or other biological activities can also be used as antimicrobial effector moieties.

| Substance | Activities (microorganisms [1]) | Target(s) (microorganisms [2]) | Organism, effect: MRSA (microorganisms [3]; MRSA) | Organism, effect: S. epidermidis (microorganisms [3]; S. epidermidis) | also measured |
| --- | --- | --- | --- | --- | --- |
| PF-392: peptide having multiple activities (chain 1 DPAGCNDIVRKYCK; chain 2 DPAGCNDIVRKYCK; Peptide with targeting and/or antimicrobial activity) | G B | S. epidermidis; also recorded: B. subtilis; also recorded: S. pneumoniae; also recorded: C. jeikeium; also recorded: C. jejuni | MRSA (S) | – | Organism, effect: C. jejuni (microorganisms [3]; C. jejuni): C. jejuni (A); Organism, effect: E. faecalis (microorganisms [3]; E. faecalis): E. faecalis (A) |
| PF-393: peptide having multiple activities (chain 1 DLVQSILSEFKKSG; chain 2 DLVQSILSEFKKSG; Peptide with targeting and/or antimicrobial activity) | G B | S. epidermidis and E. coli and C. albicans and MRSA and S. pneumoniae and C. jejuni | MRSA (C) | S. epidermidis (R) | Organism, effect: C. jejuni (microorganisms [3]; C. jejuni): C. jejuni (R); Organism, effect: E. faecalis (microorganisms [3]; E. faecalis): E. faecalis (A); Organism, effect: S. pneumoniae (microorganisms [3]; S. pneumoniae): S. pneumoniae (R) |
| PF-394: peptide having multiple activities (chain 1 VLKEECYQKN; chain 2 VLKEECYQKN; Peptide with targeting and/or antimicrobial activity) | G B | S. epidermidis and MRSA and C. jejuni | MRSA (C) | – | Organism, effect: E. faecalis (microorganisms [3]; E. faecalis): E. faecalis (A) |
| PF-395: peptide having multiple activities (chain 1 YCVPLGNMGNMNNKIW; chain 2 YCVPLGNMGNMNNKIW; Peptide with targeting and/or antimicrobial activity) | G B | S. epidermidis; also recorded: E. coli; also recorded: P. aeruginosa; also recorded: S. pneumoniae; also recorded: E. faecalis; also recorded: C. jeikeium; also recorded: C. jejuni | MRSA (C) | S. epidermidis (C) | Organism, effect: E. coli (microorganisms [3]; E. coli): E. coli (R) |
| PF-396: peptide having multiple activities (chain 1 LIYTILASLGVLTVLQAILGREPKAVKA; chain 2 LIYTILASLGVLTVLQAILGREPKAVKA; Peptide with targeting and/or antimicrobial activity) | G B | S. epidermidis; also recorded: E. coli; also recorded: P. aeruginosa; also recorded: C. albicans; also recorded: E. faecalis; also recorded: C. jeikeium | MRSA (C) | S. epidermidis (S) | Organism, effect: E. coli (microorganisms [3]; E. coli): E. coli (C); Organism, effect: E. faecalis (microorganisms [3]; E. faecalis): E. faecalis (C) |
| PF-397: peptide having multiple activities (chain 1 VEDLMEDLNA; chain 2 VEDLMEDLNA; Peptide with targeting and/or antimicrobial activity) | G B | S. epidermidis and MRSA and S. pneumoniae and E. faecalis and C. jejuni | – | S. epidermidis (C) | – |
| PF-401: peptide having multiple activities (chain 1 YWLSRVTTGHSFAFEKPVPLSLTIK; chain 2 YWLSRVTTGHSFAFEKPVPLSLTIK; Peptide with targeting and/or antimicrobial activity) | G B | S. epidermidis and E. coli and P. aeruginosa and MRSA and E. faecalis and C. jejuni | MRSA (C) | S. epidermidis (C) | Organism, effect: E. coli (microorganisms [3]; E. coli): E. coli (R); Organism, effect: E. faecalis (microorganisms [3]; E. faecalis): E. faecalis (C) |
| PF-403: peptide having multiple activities (chain 1 LLSTEQLLKYYDGETFDGFQLPSNE; chain 2 LLSTEQLLKYYDGETFDGFQLPSNE; Peptide with targeting and/or antimicrobial activity) | G B | E. coli; also recorded: P. aeruginosa; also recorded: S. pneumoniae; also recorded: E. faecalis; also recorded: C. jeikeium; also recorded: C. jejuni | MRSA (M) | S. epidermidis (M) | Organism, effect: E. coli (microorganisms [3]; E. coli): E. coli (R) |
| PF-404: peptide having multiple activities (chain 1 VLYFQATVV; chain 2 VLYFQATVV; Peptide with targeting and/or antimicrobial activity) | G B | S. epidermidis; also recorded: E. coli; also recorded: P. aeruginosa; also recorded: E. faecalis; also recorded: C. jeikeium; also recorded: C. jejuni | MRSA (M) | S. epidermidis (M) | – |
| PF-405: peptide having multiple activities (chain 1 LVRIEVDDLEEWYERNFI; chain 2 LVRIEVDDLEEWYERNFI; Peptide with targeting and/or antimicrobial activity) | G B | S. epidermidis; also recorded: E. coli; also recorded: E. faecalis | MRSA (M) | – | – |
| PF-406: peptide having multiple activities (chain 1 YLEMNADYLSNMDIFDELWEKYLENNK; chain 2 YLEMNADYLSNMDIFDELWEKYLENNK; Peptide with targeting and/or antimicrobial activity) | G B | E. coli; also recorded: C. jejuni | MRSA (M) | S. epidermidis (C) | – |
| PF-408: peptide having multiple activities (chain 1 YCVPLGNMGNMNNKIW; chain 2 YCVPLGNMGNMNNKIW; Peptide with targeting and/or antimicrobial activity) | G B | S. epidermidis and E. coli and P. aeruginosa and MRSA and E. faecalis and C. jeikeium and C. jejuni | MRSA (M) | S. epidermidis (M) | – |
| PF-413: peptide having multiple activities (chain 1 TFAGSIKIGVPDLVHVTFNCKR; chain 2 TFAGSIKIGVPDLVHVTFNCKR; Peptide with targeting and/or antimicrobial activity) | G B | P. aeruginosa; also recorded: C. albicans; also recorded: C. jejuni | MRSA (C) | S. epidermidis (C) | Organism, effect: E. coli (microorganisms [3]; E. coli): E. coli (S) |
| PF-414: peptide having multiple activities (chain 1 LLNKKLE; chain 2 LLNKKLE; Peptide with targeting and/or antimicrobial activity) | G B | E. coli; also recorded: C. albicans; also recorded: C. jeikeium | – | – | Organism, effect: S. pneumoniae (microorganisms [3]; S. pneumoniae): S. pneumoniae (H) |
| PF-416: peptide having multiple activities (chain 1 SKAGLYGKIERSDKRE; chain 2 SKAGLYGKIERSDKRE; Peptide with targeting and/or antimicrobial activity) | G B | S. pneumoniae; also recorded: C. jeikeium | – | – | Organism, effect: S. pneumoniae (microorganisms [3]; S. pneumoniae): S. pneumoniae (H) |
| PF-417: peptide having multiple activities (chain 1 DSYFRS; chain 2 DSYFRS; Peptide with targeting and/or antimicrobial activity) | G B | S. epidermidis; also recorded: C. jeikeium; also recorded: C. jejuni | MRSA (M) | S. epidermidis (M) | Organism, effect: S. pneumoniae (microorganisms [3]; S. pneumoniae): S. pneumoniae (M) |
| PF-421: peptide having multiple activities (chain 1 KHCFEITDKTDVV; chain 2 KHCFEITDKTDVV; Peptide with targeting and/or antimicrobial activity) | G B | C. jeikeium | – | – | Organism, effect (microorganisms [3]; S. pneumoniae): S. pneumoniae (H) |
| PF-423: peptide having multiple activities (chain 1 AGKKERLLSFREQFLNKNKKK; chain 2 AGKKERLLSFREQFLNKNKKK; Peptide with targeting and/or antimicrobial activity) | G B | S. epidermidis; also recorded: M. luteus; also recorded: E. coli; also recorded: S. pneumoniae; also recorded: E. faecalis; also recorded: C. jeikeium | – | – | Organism, effect (microorganisms [3]; S. pneumoniae): S. pneumoniae (H) |
| PF-424: peptide having multiple activities (chain 1 IAAFVTSRAFSDTVSPI; chain 2 IAAFVTSRAFSDTVSPI; Peptide with targeting and/or antimicrobial activity) | G B | S. epidermidis and C. albicans and MRSA | – | – | Organism, effect (microorganisms [3]; S. pneumoniae): S. pneumoniae (H) |
| PF-425: peptide having multiple activities (chain 1 MMELVLKTIIGPIVVGVVLRIVDKWLNKDK; chain 2 MMELVLKTIIGPIVVGVVLRIVDKWLNKDK; Peptide with targeting and/or antimicrobial activity) | G B | S. epidermidis and M. luteus and E. coli and P. aeruginosa and C. albicans and MRSA and S. pneumoniae and C. jeikeium | – | – | Organism, effect (microorganisms [3]; C. albicans): C. albicans (A); Organism, effect (microorganisms [3]; C. jejuni): C. jejuni (D); Organism, effect (microorganisms [3]; E. coli): E. coli (C); Organism, effect (microorganisms [3]; E. faecalis): E. faecalis (D); Organism, effect (microorganisms [3]; MRSA): MRSA (D); Organism, effect (microorganisms [3]; P. aeruginosa): P. aeruginosa (A); Organism, effect (microorganisms [3]; S. epidermidis): S. epidermidis (D); Organism, effect (microorganisms [3]; S. pneumoniae): S. pneumoniae (D) |
